Experimental data taken from the NIST ThermoML archive (doi:10.1021/je1007235).
± gives the expanded uncertainty stated by the source.

Tests used:
[1] = wn = mass fraction of the nth substance listed; details: 298.15 K, 101.3 kPa, Liquid
[2] = 101.33 kPa, Liquid

OCCO [1,2-ethanediol] + CC(=O)[O-].CCCCn1cc[n+](C)c1
viscosity ([1]; w1 = 1): 16.1 ± 2 mPa·s

CC(=O)[O-].CCCCn1cc[n+](C)c1 [1-butyl-3-methylimidazolium acetate]
viscosity ([2]; 298.15 K): 383 ± 85 mPa·s
viscosity ([2]; 353.15 K): 26 ± 2 mPa·s
viscosity ([2]; 373.1 K): 15 ± 2 mPa·s
viscosity ([2]; 393.15 K): 9 ± 2 mPa·s

CC(=O)[O-].CCCCn1cc[n+](C)c1 [1-butyl-3-methylimidazolium acetate] + CC#N
viscosity ([1]; w2 = 0.089): 148 ± 19 mPa·s
viscosity ([1]; w2 = 0.213): 27 ± 2 mPa·s
viscosity ([1]; w2 = 0.389): 5 ± 2 mPa·s
viscosity ([1]; w2 = 0.593): 2 mPa·s

CC(=O)[O-].CCCCn1cc[n+](C)c1 [1-butyl-3-methylimidazolium acetate] + CN(C)C=O
viscosity ([1]; w2 = 0.062): 231 ± 40 mPa·s
viscosity ([1]; w2 = 0.191): 54 ± 3 mPa·s
viscosity ([1]; w2 = 0.389): 11 ± 2 mPa·s
viscosity ([1]; w2 = 0.606): 4 mPa·s

CC(=O)[O-].CCCCn1cc[n+](C)c1 [1-butyl-3-methylimidazolium acetate] + O
viscosity ([1]; w2 = 0.029): 383 ± 88 mPa·s
viscosity ([1]; w2 = 0.031): 341 ± 74 mPa·s
viscosity ([1]; w2 = 0.048): 236 ± 41 mPa·s
viscosity ([1]; w2 = 0.512): 18 ± 2 mPa·s
viscosity ([1]; w2 = 0.731): 5 ± 2 mPa·s

CC(=O)[O-].CCCCn1cc[n+](C)c1 [1-butyl-3-methylimidazolium acetate] + OCCO
viscosity ([1]; w2 = 0.081): 291 ± 58 mPa·s
viscosity ([1]; w2 = 0.248): 102 ± 9 mPa·s
viscosity ([1]; w2 = 0.464): 39 ± 2 mPa·s
viscosity ([1]; w2 = 0.678): 26 ± 2 mPa·s

CCCCn1cc[n+](C)c1.[Cl-] [1-butyl-3-methylimidazolium chloride]
viscosity ([2]; 353.15 K): 142 ± 17 mPa·s
viscosity ([2]; 373.1 K): 68 ± 3 mPa·s
viscosity ([2]; 393.15 K): 31 ± 2 mPa·s

CCCCn1cc[n+](C)c1.N#CN=C=[N-] [1-butyl-3-methylimidazolium dicyanamide]
viscosity ([2]; 298.15 K): 31 ± 2 mPa·s
viscosity ([2]; 353.15 K): 11 ± 2 mPa·s
viscosity ([2]; 373.1 K): 6 ± 2 mPa·s
viscosity ([2]; 393.15 K): 4 mPa·s

CC(=O)[O-].CCn1cc[n+](C)c1 [1-ethyl-3-methylimidazolium acetate]
viscosity ([2]; 298.15 K): 162 ± 21 mPa·s
viscosity ([2]; 353.15 K): 17 ± 2 mPa·s
viscosity ([2]; 373.1 K): 9 ± 2 mPa·s
viscosity ([2]; 393.15 K): 5 ± 2 mPa·s

CC(=O)[O-].CCn1cc[n+](C)c1 [1-ethyl-3-methylimidazolium acetate] + O
viscosity ([1]; w2 = 0.023): 122 ± 13 mPa·s
viscosity ([1]; w2 = 0.045): 81 ± 5 mPa·s
viscosity ([1]; w2 = 0.084): 57 ± 3 mPa·s
viscosity ([1]; w2 = 0.192): 32 ± 2 mPa·s
viscosity ([1]; w2 = 0.374): 12 ± 2 mPa·s
viscosity ([1]; w2 = 0.556): 4 mPa·s

CCn1cc[n+](C)c1.[Cl-] [1-ethyl-3-methylimidazolium chloride]
viscosity ([2]; 353.15 K): 65 ± 3 mPa·s
viscosity ([2]; 373.1 K): 27 ± 2 mPa·s
viscosity ([2]; 393.15 K): 13 ± 2 mPa·s

CCCCCCn1cc[n+](C)c1.[Cl-] [1-hexyl-3-methylimidazolium chloride]
viscosity ([2]; 353.15 K): 293 ± 57 mPa·s
viscosity ([2]; 373.1 K): 87 ± 6 mPa·s
viscosity ([2]; 393.15 K): 43 ± 3 mPa·s

CCCCCCCC[n+]1ccn(C)c1.[Cl-] [1-methyl-3-octylimidazolium chloride]
viscosity ([2]; 353.15 K): 375 ± 82 mPa·s
viscosity ([2]; 373.1 K): 161 ± 21 mPa·s
viscosity ([2]; 393.15 K): 81 ± 5 mPa·s

CC#N [acetonitrile] + CC(=O)[O-].CCCCn1cc[n+](C)c1
viscosity ([1]; w1 = 1): 0.34 mPa·s

CN(C)C=O [dimethylformamide] + CC(=O)[O-].CCCCn1cc[n+](C)c1
viscosity ([1]; w1 = 1): 0.92 mPa·s

O [water] + CC(=O)[O-].CCCCn1cc[n+](C)c1
viscosity ([1]; w1 = 1): 0.89 mPa·s

O [water] + CC(=O)[O-].CCn1cc[n+](C)c1
viscosity ([1]; w1 = 1): 0.89 mPa·s
